The text below walks through data of ChEMBL document CHEMBL1773056 (Bioorg Med Chem Lett, 2011).

What is called Ki is the dissociation constant of the complex between target and ligand, obtained from inhibition or displacement. The low end stands for a stronger hold on the target, the high end for a looser hold on the target. Broadly, the bioavailability is dose-corrected exposure relative to a reference, in per cent. A low value points to poor availability. Usually Cmax stands for the peak of the concentration-time curve. As usually defined, the Vd is a proportionality between amount in the body and measured concentration, not a real space. Low readings indicate confinement near the circulation, high ones extensive tissue distribution. Broadly, the Tmax is the time from dosing to the highest level. By inhibition in vivo is commonly meant how much of the control response was suppressed. Read a low inhibition in vivo as little suppression. For orientation: half-life means how long it takes for the measured level to halve. A lower half-life goes with fast loss. For orientation: clearance means a measure of how efficiently the substance is removed, as volume per time. The low end stands for a low capacity for elimination, the high end for a high capacity for elimination.

Some results are limits rather than exact numbers.

In data set [1] the target is T1, 5-hydroxytryptamine receptor 1A (Homo sapiens, UniProt P08908).
T1 sequence (P08908 whole entry): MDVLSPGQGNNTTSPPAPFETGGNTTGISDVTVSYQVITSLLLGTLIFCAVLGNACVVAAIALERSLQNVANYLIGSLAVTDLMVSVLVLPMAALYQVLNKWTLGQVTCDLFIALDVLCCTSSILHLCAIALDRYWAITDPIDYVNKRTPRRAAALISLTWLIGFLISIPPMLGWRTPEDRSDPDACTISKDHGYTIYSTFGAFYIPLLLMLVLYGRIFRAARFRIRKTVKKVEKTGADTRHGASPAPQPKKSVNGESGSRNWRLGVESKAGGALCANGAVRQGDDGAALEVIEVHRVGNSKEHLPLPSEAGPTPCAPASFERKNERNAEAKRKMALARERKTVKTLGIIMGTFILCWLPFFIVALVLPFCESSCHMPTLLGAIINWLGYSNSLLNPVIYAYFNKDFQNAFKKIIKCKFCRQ
Description: biochemical. In kind it is cell-based, HeLa.
Description: Displacement of [3H]-8-OH-DPAT from human 5HT1A receptor expressed in HeLa cells

Data set [2] has as its target 5-hydroxytryptamine receptor 2A (Homo sapiens, UniProt P28223).
Description: Binding affinity to human 5HT2A receptor
A further data set has as its target D(2) dopamine receptor (Homo sapiens, UniProt P14416). Briefly: biochemical. It counts as cell-based, CHO.
Data set [3] is described as follows: in vivo. The following applies: rat, po.
Description: Oral bioavailability in rat
Data set [4] is filed under the species Mus musculus. Briefly: animal or person. To be noted: po, read-out: MED.
Description: Antipsychotic activity in po dosed mouse assessed as inhibition of spontaneous locomotor activity
Data set [5] can be described thus: in vivo. To be noted: rhesus monkey, po, 3 mg/kg.
Data set [6] in a line: in vivo. The following applies: rhesus monkey, po, 3 mg/kg. This is another data set of the same source.
Data set [7] can be described thus: in vivo. The following applies: rhesus monkey, iv, 1 mg/kg.
Description: Volume of distribution at steady state in rhesus monkey at 1 mg/kg, iv and 3 mg/kg, po
The species entered for data set [8] is Rattus norvegicus. In kind it is functional.
The species entered for data set [9] is Mus musculus. The following applies: in vivo.
Description: Induction of catalepsy in mouse
Data set [10] is described as follows: in vivo. The following applies: rat, po, 3 mg/kg.
Data set [11] in a line: in vivo. The following applies: rat, iv, 1 mg/kg.
Description: Volume of distribution at steady state in rat at 1 mg/kg, iv and 3 mg/kg, po
The species entered for data set [12] is Rattus norvegicus. Briefly: animal or person. To be noted: po. In kind it is functional.
Data set [13] can be described thus: in vivo. To be noted: rat, iv, 1 mg/kg. The source holds these as a separate data set.
Description: Half life in rat at 1 mg/kg, iv
The nature of data set [14]: in vivo. The following applies: rat, po, 3 mg/kg. This is another data set of the same source.
Data set [15] can be described thus: in vivo. The following applies: rat, po, 3 mg/kg. This is another data set of the same source.
Data set [16] is filed under the species Rattus norvegicus. Briefly: animal or person. In kind it is functional. The following applies: po. This is another data set of the same source.
Data set [17] in a line: in vivo. To be noted: rhesus monkey, iv, 1 mg/kg. This is another data set of the same source.
The nature of data set [18]: in vivo. To be noted: rat, iv, 1 mg/kg. The source holds these as a separate data set.
Data set [19] is filed under the species Mus musculus. In kind it is functional, Brain.
Description: In vivo intrinsic activity at D2 receptor in po dosed mouse brain assessed as inhibition of gamma-butyrolactone-induced increase in DOPA synthesis
Data set [20] in a line: in vivo. To be noted: rhesus monkey, iv, 1 mg/kg. This is another data set of the same source.
Description: Half life in rhesus monkey at 1 mg/kg, iv
Data set [21] can be described thus: in vivo. To be noted: rhesus monkey, po, 3 mg/kg. This is another data set of the same source.
Data set [22] is filed under the species Mus musculus. It counts as functional, Brain. This is another data set of the same source.
Description: In vivo intrinsic activity at D2 receptor in sc dosed mouse brain assessed as inhibition of gamma-butyrolactone-induced increase in DOPA synthesis

Chain of 5-hydroxytryptamine receptor 2A (P28223 whole entry): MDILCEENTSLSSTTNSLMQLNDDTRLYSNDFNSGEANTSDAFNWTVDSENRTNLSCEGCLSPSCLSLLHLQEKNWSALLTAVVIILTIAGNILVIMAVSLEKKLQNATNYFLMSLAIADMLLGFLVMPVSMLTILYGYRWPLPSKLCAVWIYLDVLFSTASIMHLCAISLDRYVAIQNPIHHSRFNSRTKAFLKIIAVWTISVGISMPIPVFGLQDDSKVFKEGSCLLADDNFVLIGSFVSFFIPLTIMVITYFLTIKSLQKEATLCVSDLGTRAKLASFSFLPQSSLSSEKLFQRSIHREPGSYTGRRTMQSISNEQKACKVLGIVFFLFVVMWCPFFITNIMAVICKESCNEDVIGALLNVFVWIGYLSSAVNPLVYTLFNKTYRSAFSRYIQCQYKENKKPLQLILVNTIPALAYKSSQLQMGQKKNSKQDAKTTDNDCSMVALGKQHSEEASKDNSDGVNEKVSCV
Chain of D(2) dopamine receptor (P14416 whole entry): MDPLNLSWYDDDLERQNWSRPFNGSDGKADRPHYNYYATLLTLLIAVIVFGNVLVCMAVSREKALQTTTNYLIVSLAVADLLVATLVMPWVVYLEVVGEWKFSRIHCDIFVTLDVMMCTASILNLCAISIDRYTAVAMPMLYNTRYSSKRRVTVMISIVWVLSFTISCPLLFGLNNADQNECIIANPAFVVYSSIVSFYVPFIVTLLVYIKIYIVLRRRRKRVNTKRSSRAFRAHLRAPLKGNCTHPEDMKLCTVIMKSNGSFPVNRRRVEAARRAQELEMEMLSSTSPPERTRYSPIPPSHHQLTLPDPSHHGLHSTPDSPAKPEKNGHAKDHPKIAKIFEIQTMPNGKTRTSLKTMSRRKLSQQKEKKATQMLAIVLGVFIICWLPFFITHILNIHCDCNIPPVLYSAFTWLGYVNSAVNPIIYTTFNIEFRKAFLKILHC
Description for D(2) dopamine receptor: Displacement of [3H]Spiperone from human dopamine D2L receptor expressed in CHO cells

On to `O=c1ccc2cnc(OCCCCN3CCN(c4cccc(Cl)c4Cl)CC3)cc2[nH]1`, for which the Ki amounted to 40.7 nM in data set [1] and 2.9 nM in data set [2].
Taken in the same sequence, the figures for `O=c1ccc2cnc(OCCCCN3CCN(c4cccc(Cl)c4Cl)CC3)nc2[nH]1` were 52.7 nM and 3.2 nM.
The compound `Cc1c(Cl)cccc1N1CCN(CCCCOc2ccc3c(n2)NC(=O)CC3)CC1` registered a Ki in data set [2] of 1.5 nM.
`Cc1ccccc1N1CCN(CCCCOc2ccc3c(n2)NC(=O)CC3)CC1` registered an inhibitory constant (Ki) in data set [2] of 50.9 nM.
In turn, `O=C1CCc2ccc(OCCCCN3CCN(c4cccc(C(F)(F)F)c4Cl)CC3)nc2N1` showed a Ki in data set [2] of 12 nM.
Consider `O=C1CCc2ccc(OCCCCN3CCN(c4cccc5cccc(F)c45)CC3)nc2N1`, for which the Ki in data set [1] was determined as 0.77 nM; in data set [2], 0.67 nM; at D(2) dopamine receptor, 1.7 nM.
As to `O=C1CCc2ccc(OCCCCN3CCN(c4cccc5c4CCCC5)CC3)nc2N1`, the Ki turned out to be 28 nM in [1] and 0.09 nM in data set [2].
The matching figures for `O=c1ccc2ccc(OCCCCN3CCN(c4cccc(Cl)c4Cl)CC3)nc2[nH]1`: 14 nM and 1.6 nM.
The compound `O=C1CCc2ccc(OCCCCN3CCN(c4ccc(F)c5ccccc45)CC3)nc2N1` came in with a Ki in data set [2] of 11.7 nM.
In the case of `Cc1cccc(N2CCN(CCCCOc3ccc4c(n3)NC(=O)CC4)CC2)c1C`, the inhibitory constant (Ki) in data set [2] was 0.35 nM.
Turning to `O=C1CCc2ccc(OCCCCN3CCN(c4cccc(Cl)c4F)CC3)nc2N1`, the Ki stood at 1.2 nM in [1] and 10.4 nM in [2].
Take `O=C1CCc2ccc(OCCCCN3CCN(c4cccc5c(F)cccc45)CC3)nc2N1`: the values for the Ki in data set [1] and in data set [2] were 3 nM and 3.3 nM, respectively.
Consider `O=C1CCc2ccc(CCCCCN3CCN(c4cccc(Cl)c4Cl)CC3)nc2N1`, for which the Ki in data set [1] was found to be 11.4 nM; in data set [2] it was 0.79 nM. This compound showed a bioavailability in the data set “in vivo [3]” of 6%.
For the compound `O=C1CCc2ccc(OCCCCN3CCN(c4cccc5c4CCCO5)CC3)nc2N1`, the figures for the Ki (in data set [1]; in data set [2]; at D(2) dopamine receptor) were 0.78 nM, 1.3 nM and 1 nM, respectively.
For `O=C1CCc2ccc(OCCCCN3CCN(c4cccc5c4CCC5)CC3)nc2N1`, the results for the Ki in data set [1] and in data set [2] were 6.3 nM and 0.16 nM, respectively.
On to `O=C1CCc2ccc(OCCCCN3CCN(c4ccccc4Cl)CC3)nc2N1`, for which the Ki in data set [1] was found to be 4.6 nM; in data set [2] it was 15.9 nM.
On to `O=C1CCc2ccc(OCCCCN3CCN(c4cccc(F)c4Cl)CC3)nc2N1`, for which the Ki in [1] turned out to be 1.7 nM; in data set [2] it was 31.2 nM.
In the case of `O=C1CCc2ccc(OCCCCN3CCN(c4c(F)ccc5ccccc45)CC3)nc2N1`, the Ki in data set [1] was determined as 0.84 nM; in data set [2] it was 6.7 nM.
Regarding `O=C1CCc2ccc(OCCCCN3CCN(c4cccc5ccccc45)CC3)nc2N1` [PF-00217830], the minimal effective dose in the data set listed under Mus musculus [4] is 0.3 mg/kg. Also, the figures for the bioavailability in the data set “in vivo [5]” and in the data set “in vivo [15]” were 20.5% and 19.2%, respectively. Also, the figures for the peak concentration (Cmax) in the data set “in vivo [6]” and in “in vivo [14]” were 96 ng/mL and 202 ng/mL, respectively. For the same compound, the Ki in [1] worked out at 3.7 nM; in data set [2], 0.14 nM. Further, the Vd was found to be 2.6 L/kg in the data set “in vivo [7]” and 1.1 L/kg in “in vivo [11]”. Further, the “inhibition (INH)” value in the data set listed under Rattus norvegicus [8] worked out at 78%; in the data set filed under Mus musculus [19], 46%. The compound also had an MED in the data set filed under Mus musculus [9] of over 10 mg/kg. The Tmax in “in vivo [10]” stood at 1.2 h; in “in vivo [21]”, 5 h. The compound also registered an inhibition in vivo at 0.3 mg/kg in the data set filed under Rattus norvegicus [12] of 31%. Moreover, the half-life in the data set “in vivo [13]” is 6.8 h; in “in vivo [20]” it was 13.6 h. This compound came in with an inhibition in vivo at 1 mg/kg in the data set filed under Rattus norvegicus [16] of 78%. Besides, the clearance in the data set “in vivo [17]” turned out to be 5.8 mL/min/kg; in the data set “in vivo [18]” it was 14.9 mL/min/kg.
`O=C1CCc2ccc(OCCCCN3CCN(c4cccc5ccc(F)cc45)CC3)nc2N1`: the Ki turned out to be 1.1 nM in data set [1], 0.28 nM in data set [2] and 1.2 nM at D(2) dopamine receptor.
Consider `O=C1CCc2ccc(OCCCCN3CCN(c4cc(F)cc5ccccc45)CC3)nc2N1`, for which the Ki in [1] was 3.3 nM; in [2], 1.9 nM.
For the compound `Cc1cccc(N2CCN(CCCCOc3ccc4c(n3)NC(=O)CC4)CC2)c1Cl`, affinity in data set [2] was put at a Ki of 0.5 nM.
`O=C1CCc2ccc(OCCCCN3CCN(c4cccc(Cl)c4C(F)(F)F)CC3)nc2N1`: the figures for the Ki (in data set [1]; in [2]; on D(2) dopamine receptor) were 3.5 nM, 1.4 nM and 3 nM, respectively.
For `O=C1CCc2ccc(OCCCCN3CCN(c4cccc5c4OCCC5)CC3)nc2N1`, the inhibition constant Ki in data set [1] amounted to 1.1 nM; in [2] it was 0.19 nM; on D(2) dopamine receptor, 0.71 nM.
On to `O=c1ccc2ccc(OCCCCN3CCN(c4cccc5ccccc45)CC3)nc2[nH]1`, for which, in the data set filed under Mus musculus [4], the minimal effective dose was determined as 1 mg/kg. Also, the MED in the data set listed under Mus musculus [9] was over 30 mg/kg. In the data set filed under Mus musculus [22], the “inhibition (INH)” value is 45%.
For `O=C1CCc2ccc(OCCCCN3CCN(c4cccc(Cl)c4Cl)CC3)nc2N1`, the values for the Ki in data set [1] and in data set [2] were 17.7 nM and 0.13 nM, respectively. For the same compound, the bioavailability in “in vivo [3]” was 23%.
Regarding `O=C1CCc2ccc(OCCCCN3CCN(c4cccc5cc(F)ccc45)CC3)nc2N1`, the Ki turned out to be 1.2 nM in data set [1] and 3.5 nM in [2].
